Assay results from publication PMC6130513, “In vitro inhibitory effects of Friedelin on human liver cytochrome P450 enzymes” (Pharmaceutical Biology, 2018).

Key:
CYP3A4 [1] = molecular target: T1, CYP3A4 (Homo sapiens, UniProt P08684); test: Time-dependent inhibition study of CYP3A4 in human liver microsomes; type: in vitro ADME
T1 construct: effects of Friedelin on CYP3A4 catalyzed reactions (testosterone 6β-hydroxylation) in pooled HLM; from tissue; host or cells: pooled human liver microsomes
Method: (§1) To determine whether Friedelin could inhibit the activity of CYP3A4 and 2E1 in a time-dependent manner, Friedelin (20 μM) was preincubated with HLMs (1 mg/mL) in the presence of an NADPH-generating system for 30 min at 37 °C. After incubation, an aliquot (20 μL) was transferred to another incubation tube (final volume 200 μL) containing an NADPH-generating system and probe substrates whose final concentrations were approximate to Km. Then, further incubations were performed to measure the residual activity. After being incubated for different time (0–30 min), the reactions were terminated by adding a 100 μL acetonitrile internal standard mix and then placed on ice; the corresponding metabolites were determined by HPLC. To determine the Ki and kinact values for the inactivation of CYP3A4, the incubations were conducted using higher probe substrate concentrations (approximately 4-fold Km values) and various concentrations of Friedelin (0–50 μM) after different preincubation times (0–30 min), with a two-step incubation scheme, as described above.

CYP3A4 [2] = molecular target: T1, CYP3A4; test: CYP3A4 inhibition in pooled human liver microsomes (testosterone 6β-hydroxylation); type: in vitro ADME; details: pooled HLMs
Method: (§2) All incubations were performed in triplicate, and the mean values were utilized. The typical incubation systems contained 100 mM potassium phosphate buffer (pH 7.4), NADPH generating system (1 mM NADP^+, 10 mM glucose-6-phosphate, 1 U/mL of glucose-6-phosphate dehydrogenase, and 4 mM MgCl2), the appropriate concentration of HLMs, a corresponding probe substrate and Friedelin (or positive inhibitor for different probe reactions) in a final volume of 200 μL.
(§3) The concentration of Friedelin was 100 μM, and the positive inhibitor concentrations were as follows: 1 μM ketoconazole for CYP3A4, 10 μM furafylline for CYP1A2, 10 μM tranylcypromine for CYP2A6, 50 μM clomethiazole for CYP2E1, 10 μM quinidine for CYP2D6, 10 μM sulfaphenazole for CYP2C9, 50 μM tranylcypromine for CYP2C19, 5 μM montelukast for CYP2C8. Probe substrates, positive inhibitors (except for dextromethorphan and quinidine which were dissolved in water) and Friedelin were dissolved in methanol, with a final concentration of 1% (v/v) and 1% neat methanol was added to the incubations without inhibitor. There was a 3 min preincubation period (at 37 °C) before the reaction was initiated by adding an NADPH-generating system. The reaction was terminated by adding a 100 μL acetonitrile (10% trichloroacetic acid for CYP2A6) internal standard mix, and the solution was placed on ice. The mixture was centrifuged at 12,000 rpm for 10 min, and an aliquot (50 μL) of the supernatant was transferred for HPLC analysis. The instrument used in this study were Agilent 1260 series instrument with DAD and FLD detector, and the quantitative assay for the corresponding metabolites was performed as previously reported (Lang et al. [2016]; Zhang et al. [2017]).
(§4) Friedelin (100 μM) was used to initially screen for its direct inhibitory effects toward different human CYP isoforms. […] Ki values were obtained by incubating various concentrations of different probe substrates (20–100 μM testosterone, 25–200 μM chlorzoxazone) in the presence of 0–50 μM Friedelin.
(§5) The enzyme kinetic parameters for the probe reaction were estimated from the best fit line using least-squares linear regression of the inverse substrate concentration versus the inverse velocity (Lineweaver–Burk plots), and the mean values were used to calculate Vmax and Km. Inhibition data from the experiments that were conducted using multiple compound concentrations were represented by Dixon plots, and inhibition constant (Ki) values were calculated using nonlinear regression according to the following equation: v=(VmaxS)/(Km(1+I/Ki)+S), where I is the concentration of the compound, Ki is the inhibition constant, S is the concentration of the substrate, and Km is the substrate concentration at half the maximum velocity (Vmax) of the reaction. […]

CYP1A2 = molecular target: T2, CYP1A2 (Homo sapiens, UniProt P05177); test: CYP1A2 inhibition in pooled human liver microsomes (phenacetin O-demethylation); type: in vitro ADME; details: Friedelin 100 μM, pooled HLMs
T2 construct: from tissue; host or cells: human liver microsomes
T2 sequence (P05177 1-516): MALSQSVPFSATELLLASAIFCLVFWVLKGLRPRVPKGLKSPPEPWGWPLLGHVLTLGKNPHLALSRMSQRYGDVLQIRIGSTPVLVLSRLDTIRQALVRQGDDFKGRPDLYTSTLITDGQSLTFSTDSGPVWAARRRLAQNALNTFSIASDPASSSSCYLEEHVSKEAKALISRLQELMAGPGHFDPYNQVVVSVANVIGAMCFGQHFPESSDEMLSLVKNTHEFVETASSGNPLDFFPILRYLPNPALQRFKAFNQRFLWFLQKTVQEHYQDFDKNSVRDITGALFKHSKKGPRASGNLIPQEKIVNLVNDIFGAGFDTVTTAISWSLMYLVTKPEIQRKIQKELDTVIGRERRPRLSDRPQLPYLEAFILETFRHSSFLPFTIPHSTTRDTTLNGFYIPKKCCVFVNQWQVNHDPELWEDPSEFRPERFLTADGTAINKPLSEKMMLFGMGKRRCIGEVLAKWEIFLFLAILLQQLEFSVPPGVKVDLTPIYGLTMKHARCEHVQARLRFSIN
Method: as §2
as §3, with “There was a 3 min preincubation period (at 37 °C) before the reaction was initiated by adding an NADPH-generating system. The reaction was terminated by adding a 100 μL acetonitrile (10% trichloroacetic acid for CYP2A6) internal standard mix, and the solution was placed on ice. The mixture was centrifuged at 12,000 rpm for 10 min, and an aliquot (50 μL) of the supernatant was transferred for HPLC analysis.” left out, “[2017]). […]” for “[2017]).”

CYP2C8 = molecular target: T3, CYP2C8 (Homo sapiens, UniProt P10632); test: CYP2C8 inhibition in pooled human liver microsomes (paclitaxel 6α-hydroxylation); type: in vitro ADME; details: Friedelin 100 μM, pooled HLMs
T3 construct: from tissue; host or cells: human liver microsomes
T3 sequence (P10632 1-490): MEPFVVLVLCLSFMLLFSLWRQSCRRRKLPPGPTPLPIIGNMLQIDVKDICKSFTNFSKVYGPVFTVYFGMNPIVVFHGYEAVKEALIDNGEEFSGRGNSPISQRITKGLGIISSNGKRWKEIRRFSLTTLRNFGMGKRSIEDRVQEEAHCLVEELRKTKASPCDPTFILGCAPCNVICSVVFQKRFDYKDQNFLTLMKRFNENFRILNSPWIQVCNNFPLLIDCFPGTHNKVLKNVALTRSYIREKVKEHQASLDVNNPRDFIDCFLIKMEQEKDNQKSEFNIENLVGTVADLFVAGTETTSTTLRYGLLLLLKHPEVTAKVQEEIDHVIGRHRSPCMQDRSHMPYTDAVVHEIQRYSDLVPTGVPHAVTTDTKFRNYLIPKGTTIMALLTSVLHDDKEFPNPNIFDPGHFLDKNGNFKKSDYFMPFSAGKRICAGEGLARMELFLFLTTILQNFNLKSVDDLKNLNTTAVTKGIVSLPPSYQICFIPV
Method: as §2
as §3, with “There was a 3 min preincubation period (at 37 °C) before the reaction was initiated by adding an NADPH-generating system. The reaction was terminated by adding a 100 μL acetonitrile (10% trichloroacetic acid for CYP2A6) internal standard mix, and the solution was placed on ice. The mixture was centrifuged at 12,000 rpm for 10 min, and an aliquot (50 μL) of the supernatant was transferred for HPLC analysis.” left out, “[2017]). […]” for “[2017]).”

CYP2C9 = molecular target: T4, CYP2C9 (Homo sapiens, UniProt P11712); test: CYP2C9 inhibition in pooled human liver microsomes (diclofenac 4'-hydroxylation); type: in vitro ADME; details: Friedelin 100 μM, pooled HLMs
T4 construct: from tissue; host or cells: human liver microsomes
Method: as §2
as §3, with “There was a 3 min preincubation period (at 37 °C) before the reaction was initiated by adding an NADPH-generating system. The reaction was terminated by adding a 100 μL acetonitrile (10% trichloroacetic acid for CYP2A6) internal standard mix, and the solution was placed on ice. The mixture was centrifuged at 12,000 rpm for 10 min, and an aliquot (50 μL) of the supernatant was transferred for HPLC analysis.” left out, “[2017]). […]” for “[2017]).”

CYP2E1 [3] = molecular target: T5, CYP2E1 (Homo sapiens, UniProt P05181); test: Time-dependent inhibition study of CYP2E1 in human liver microsomes; type: in vitro ADME; details: Friedelin 20 μM, 30 min preincubation with HLM and NADPH
T5 construct: effects of Friedelin on CYP2E1 catalyzed reactions (chlorzoxazone 6-hydroxylation) in pooled HLM; from tissue; host or cells: pooled human liver microsomes
Method: as §1, with “HPLC.” for “HPLC. To determine the Ki and kinact values for the inactivation of CYP3A4, the incubations were conducted using higher probe substrate concentrations (approximately 4-fold Km values) and various concentrations of Friedelin (0–50 μM) after different preincubation times (0–30 min), with a two-step incubation scheme, as described above.”

CYP2A6 = molecular target: T6, CYP2A6 (Homo sapiens, UniProt P11509); test: CYP2A6 inhibition in pooled human liver microsomes (coumarin 7-hydroxylation); type: in vitro ADME; details: Friedelin 100 μM, pooled HLMs
T6 construct: from tissue; host or cells: human liver microsomes
T6 sequence (P11509 1-494): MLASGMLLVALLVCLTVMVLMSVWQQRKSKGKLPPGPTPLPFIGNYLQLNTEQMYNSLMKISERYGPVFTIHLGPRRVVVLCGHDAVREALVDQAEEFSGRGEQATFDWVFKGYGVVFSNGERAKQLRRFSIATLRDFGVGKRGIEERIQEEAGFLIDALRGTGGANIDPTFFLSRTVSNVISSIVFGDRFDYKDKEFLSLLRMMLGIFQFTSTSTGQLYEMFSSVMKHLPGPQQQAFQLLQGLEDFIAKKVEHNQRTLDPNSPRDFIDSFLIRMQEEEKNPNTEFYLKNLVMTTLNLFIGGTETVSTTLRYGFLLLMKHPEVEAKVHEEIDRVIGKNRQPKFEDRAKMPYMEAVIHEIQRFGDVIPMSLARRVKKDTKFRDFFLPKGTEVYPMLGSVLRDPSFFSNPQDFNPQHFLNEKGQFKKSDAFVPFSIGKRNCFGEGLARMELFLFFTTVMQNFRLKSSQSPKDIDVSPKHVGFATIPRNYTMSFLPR
Method: as §2
as §3, with “There was a 3 min preincubation period (at 37 °C) before the reaction was initiated by adding an NADPH-generating system. The reaction was terminated by adding a 100 μL acetonitrile (10% trichloroacetic acid for CYP2A6) internal standard mix, and the solution was placed on ice. The mixture was centrifuged at 12,000 rpm for 10 min, and an aliquot (50 μL) of the supernatant was transferred for HPLC analysis.” left out, “[2017]). […]” for “[2017]).”

P-glycoprotein (P-gp) = test system: P-glycoprotein (P-gp); set-up: method as in Lee et al. [2017]; details: ref Lee et al. [2017]; cited from earlier work
CYP2E1 [4] = molecular target: T5, CYP2E1; test: CYP2E1 inhibition in pooled human liver microsomes (chlorzoxazone 6-hydroxylation); type: in vitro ADME; details: pooled HLMs
Method: as §2, §3, §4, §5

CYP2C19 = molecular target: T7, CYP2C19 (Homo sapiens, UniProt P33261); test: CYP2C19 inhibition in pooled human liver microsomes (S-mephenytoin 4-hydroxylation); type: in vitro ADME; details: Friedelin 100 μM, pooled HLMs
T7 construct: from tissue; host or cells: human liver microsomes
Method: as §2
as §3, with “There was a 3 min preincubation period (at 37 °C) before the reaction was initiated by adding an NADPH-generating system. The reaction was terminated by adding a 100 μL acetonitrile (10% trichloroacetic acid for CYP2A6) internal standard mix, and the solution was placed on ice. The mixture was centrifuged at 12,000 rpm for 10 min, and an aliquot (50 μL) of the supernatant was transferred for HPLC analysis.” left out, “[2017]). […]” for “[2017]).”

CYP2D6 = molecular target: T8, CYP2D6 (Homo sapiens, UniProt P10635); test: CYP2D6 inhibition in pooled human liver microsomes (dextromethorphan O-demethylation); type: in vitro ADME; details: Friedelin 100 μM, pooled HLMs
T8 construct: from tissue; host or cells: human liver microsomes
Method: as §2
as §3, with “There was a 3 min preincubation period (at 37 °C) before the reaction was initiated by adding an NADPH-generating system. The reaction was terminated by adding a 100 μL acetonitrile (10% trichloroacetic acid for CYP2A6) internal standard mix, and the solution was placed on ice. The mixture was centrifuged at 12,000 rpm for 10 min, and an aliquot (50 μL) of the supernatant was transferred for HPLC analysis.” left out, “[2017]). […]” for “[2017]).”

T1 sequence (P08684 whole entry): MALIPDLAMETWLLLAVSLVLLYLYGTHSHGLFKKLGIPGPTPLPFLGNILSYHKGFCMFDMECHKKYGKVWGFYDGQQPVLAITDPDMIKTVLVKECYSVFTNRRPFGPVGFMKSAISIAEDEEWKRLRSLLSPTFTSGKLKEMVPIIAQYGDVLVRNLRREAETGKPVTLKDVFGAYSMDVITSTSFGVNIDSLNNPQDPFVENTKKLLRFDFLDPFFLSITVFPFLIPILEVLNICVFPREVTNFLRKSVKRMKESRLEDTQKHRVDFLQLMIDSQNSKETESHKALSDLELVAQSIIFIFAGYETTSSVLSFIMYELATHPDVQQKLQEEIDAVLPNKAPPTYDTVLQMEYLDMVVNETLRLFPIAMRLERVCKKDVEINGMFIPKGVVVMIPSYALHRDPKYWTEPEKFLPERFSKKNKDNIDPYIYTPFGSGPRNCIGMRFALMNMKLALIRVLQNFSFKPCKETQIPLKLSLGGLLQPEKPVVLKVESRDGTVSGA
T5 sequence (P05181 whole entry): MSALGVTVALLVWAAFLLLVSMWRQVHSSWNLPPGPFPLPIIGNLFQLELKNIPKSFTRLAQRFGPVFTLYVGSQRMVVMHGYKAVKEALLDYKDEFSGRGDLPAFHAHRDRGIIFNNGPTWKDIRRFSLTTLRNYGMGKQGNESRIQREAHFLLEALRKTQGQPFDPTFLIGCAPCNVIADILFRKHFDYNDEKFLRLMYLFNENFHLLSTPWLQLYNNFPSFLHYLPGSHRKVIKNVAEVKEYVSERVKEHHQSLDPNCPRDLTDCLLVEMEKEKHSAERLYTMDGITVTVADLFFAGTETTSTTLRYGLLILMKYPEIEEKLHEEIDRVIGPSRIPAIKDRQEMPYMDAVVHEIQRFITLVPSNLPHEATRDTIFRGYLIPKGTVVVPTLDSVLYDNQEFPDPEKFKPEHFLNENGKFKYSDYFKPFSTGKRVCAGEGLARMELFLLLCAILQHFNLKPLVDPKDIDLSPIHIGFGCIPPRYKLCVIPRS
T7 sequence (P33261 whole entry): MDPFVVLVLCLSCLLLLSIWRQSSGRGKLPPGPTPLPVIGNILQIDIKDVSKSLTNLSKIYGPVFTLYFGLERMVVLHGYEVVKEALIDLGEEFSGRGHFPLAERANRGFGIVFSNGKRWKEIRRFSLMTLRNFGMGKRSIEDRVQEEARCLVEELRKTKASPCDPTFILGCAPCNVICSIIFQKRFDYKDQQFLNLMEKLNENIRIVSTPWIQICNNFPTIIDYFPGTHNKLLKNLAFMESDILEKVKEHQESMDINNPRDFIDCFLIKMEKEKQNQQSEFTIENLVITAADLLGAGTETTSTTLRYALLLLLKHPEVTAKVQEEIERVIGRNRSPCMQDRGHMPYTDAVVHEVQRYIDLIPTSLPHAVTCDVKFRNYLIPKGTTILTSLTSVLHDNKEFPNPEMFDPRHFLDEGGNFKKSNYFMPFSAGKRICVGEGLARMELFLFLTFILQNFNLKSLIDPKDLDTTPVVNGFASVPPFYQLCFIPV
T8 sequence (P10635 whole entry): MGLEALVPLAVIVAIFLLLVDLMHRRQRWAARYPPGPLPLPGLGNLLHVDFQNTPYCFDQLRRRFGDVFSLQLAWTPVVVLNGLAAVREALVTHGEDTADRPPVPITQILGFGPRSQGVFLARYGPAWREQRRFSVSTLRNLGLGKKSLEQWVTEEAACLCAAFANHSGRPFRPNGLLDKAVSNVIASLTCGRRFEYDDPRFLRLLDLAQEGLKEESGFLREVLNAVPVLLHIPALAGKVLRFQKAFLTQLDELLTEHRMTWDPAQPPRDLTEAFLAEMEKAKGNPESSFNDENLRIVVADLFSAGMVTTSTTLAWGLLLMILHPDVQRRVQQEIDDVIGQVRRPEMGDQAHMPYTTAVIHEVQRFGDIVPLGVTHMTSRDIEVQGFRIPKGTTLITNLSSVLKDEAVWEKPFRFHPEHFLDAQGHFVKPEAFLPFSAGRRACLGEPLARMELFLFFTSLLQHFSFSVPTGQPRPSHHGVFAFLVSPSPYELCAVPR
T4 sequence (P11712 whole entry): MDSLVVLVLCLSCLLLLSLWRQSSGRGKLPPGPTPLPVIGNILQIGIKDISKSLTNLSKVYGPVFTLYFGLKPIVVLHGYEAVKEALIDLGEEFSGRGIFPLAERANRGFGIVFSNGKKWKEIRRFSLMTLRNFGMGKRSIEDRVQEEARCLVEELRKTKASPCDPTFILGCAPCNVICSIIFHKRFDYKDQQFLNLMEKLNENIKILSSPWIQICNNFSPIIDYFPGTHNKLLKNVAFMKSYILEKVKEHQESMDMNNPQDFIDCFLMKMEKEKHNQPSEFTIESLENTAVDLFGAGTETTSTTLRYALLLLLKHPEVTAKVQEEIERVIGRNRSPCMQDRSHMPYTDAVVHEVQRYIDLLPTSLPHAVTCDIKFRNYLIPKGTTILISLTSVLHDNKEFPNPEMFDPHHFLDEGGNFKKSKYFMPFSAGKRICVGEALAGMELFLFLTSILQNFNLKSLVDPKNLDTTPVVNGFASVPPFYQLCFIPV

- Time-dependent inhibition of CYP3A4 activity (CYP3A4 [1]; Friedelin 20 μM, 30 min preincubation with HLM and NADPH): decreased with the incubation time
- kinact/KI (CYP3A4 [1]; human, human liver microsomes, HLM, Friedelin 0–50 μM, preincubation 0–30 min with NADPH, read-out: Kinact/Ki for CYP3A4 inactivation (converted)): 80.7 M⁻¹ s⁻¹
- CYP3A4 inactivated each minute (Kinact) (CYP3A4 [1]; saturating concentration of Friedelin incubated with HLM): approximately 5.9%
- Mode of inhibition of CYP3A4 (CYP3A4 [2]; Lineweaver–Burk plots): noncompetitive
- activity at 100 μM (CYP3A4 [2]; human, pooled human liver microsomes, pH 7.4, probe testosterone (6β-hydroxylation), Friedelin 100 μM, testosterone 6β-hydroxylation, read-out: CYP3A4 activity, % of control activity): 7.5%
- Ki (CYP3A4 [2]; secondary Lineweaver–Burk plot, testosterone 20–100 μM): 6.16 µM
- IC50 (CYP3A4 [2]; testosterone 6β-hydroxylation): 10.8 µM
- Inhibition of CYP1A2 activity (CYP1A2): could not inhibit
- Inhibition of CYP2C8 activity (CYP2C8): could not inhibit
- Inhibition of CYP2C9 activity (CYP2C9): could not inhibit
- Time-dependent inhibition of CYP2E1 activity (CYP2E1 [3]): not affected
- Inhibition of CYP2A6 activity (CYP2A6): could not inhibit
- Mode of inhibition of CYP2E1 (CYP2E1 [4]; Lineweaver–Burk plots): competitive
- activity at 100 μM (CYP2E1 [4]; human, pooled human liver microsomes, pH 7.4, probe chlorzoxazone (6-hydroxylation), Friedelin 100 μM, chlorzoxazone 6-hydroxylation, read-out: CYP2E1 activity, % of control activity): 18.9%
- IC50 (CYP2E1 [4]; chlorzoxazone 6-hydroxylation): 22.5 µM
- Ki (CYP2E1 [4]; secondary Lineweaver–Burk plot, chlorzoxazone 25–200 μM): 18 µM
- Inhibition of CYP2C19 activity (CYP2C19): could not inhibit
- Inhibition of CYP2D6 activity (CYP2D6): could not inhibit
Compound: C[C@H]1C(=O)CC[C@@H]2[C@]1(C)CC[C@H]1[C@@]2(C)CC[C@@]2(C)[C@@H]3CC(C)(C)CC[C@]3(C)CC[C@]12C [Friedelin]
- Effect on ATPase activity of P-glycoprotein (P-glycoprotein (P-gp)): could suppress ATPase activity
